# Measured values from US20100160351A1, “PHARMACEUTICAL COMPOSITIONS AND METHODS FOR TREATING HYPERURICEMIA AND RELATED DISORDERS” (NUON THERAPEUTICS, INC., priority 2008, published 2010).
# Test system: serum uric acid (sUA) levels in hyperuricemic patients
# Experiment: PRESTO study: change in serum uric acid in hyperuricemic patients (baseline >=8 mg/dL), Tranilast twice daily for 1 or 3 months
# Assay type: in vivo, human
# Protocol: The PRESTO (Prevention of Restenosis with Tranilast and its Outcomes) study was a multicenter study of ˜11,500 patients undergoing percutaneous transluminal coronary revascularization (PTCR) with or without stenting for single or multiple vessels over a 9-month period. The study compared the composite clinical event rate of death, myocardial infarction, or need for ischemia-driven target vessel revascularization in patients treated with Tranilast (300 and 450 mg twice daily) for 1 or 3 months versus placebo. Description of the study protocol and patient population can be found in Holmes et al., The PRESTO (Prevention of Restenosis with Tranilast and its Outcomes) protocol: A double-blind, placebo-controlled trial, Am Heart J 2000; 139:23-31; and Holmes et al., Results of Prevention of REStenosis with Tranilast and its Outcomes (PRESTO) Trial, Circulation. 2002; 106:1243, both of which are incorporated by reference herein in their entirety.
# Gout was a contraindication for patient enrollment in the PRESTO trial. Nevertheless, 1100 patients enrolled in the trial were identified with baseline hyperuricemia defined as initial serum uric acid (sUA) levels greater than or equal to 7 mg/dL. Of these, approximately 300 participants had baseline serum uric acid levels greater than or equal to 8 mg/dL. […] As indicated in FIG. 1 and Table 4, some patients were treated with placebo, some patients were treated with Tranilast for 4 weeks followed by placebo, and some patients were treated with Tranilast for 12 weeks.
# [1] = 1M TRAN 300 mg/2M PLACEBO, Follow-Up
# [2] = 1M TRAN 300 mg/2M PLACEBO, Post-PTCR
# [3] = 1M TRAN 300 mg/2M PLACEBO, Week 1
# [4] = 1M TRAN 300 mg/2M PLACEBO, Week 2
# [5] = 1M TRAN 300 mg/2M PLACEBO, Week 3
# [6] = 1M TRAN 300 mg/2M PLACEBO, Week 4
# [7] = 1M TRAN 300 mg/2M PLACEBO, Week 6
# [8] = 1M TRAN 300 mg/2M PLACEBO, Week 8
# [9] = 1M TRAN 300 mg/2M PLACEBO, Week 10
# [10] = 1M TRAN 300 mg/2M PLACEBO, Week 12
# [11] = 1M TRAN 450 mg/2M PLACEBO, Follow-Up
# [12] = 1M TRAN 450 mg/2M PLACEBO, Post-PTCR
# [13] = 1M TRAN 450 mg/2M PLACEBO, Week 1
# [14] = 1M TRAN 450 mg/2M PLACEBO, Week 2
# [15] = 1M TRAN 450 mg/2M PLACEBO, Week 3
# [16] = 1M TRAN 450 mg/2M PLACEBO, Week 4
# [17] = 1M TRAN 450 mg/2M PLACEBO, Week 6
# [18] = 1M TRAN 450 mg/2M PLACEBO, Week 8
# [19] = 1M TRAN 450 mg/2M PLACEBO, Week 10
# [20] = 1M TRAN 450 mg/2M PLACEBO, Week 12
compound,measurement,setting,value
"COc1ccc(/C=C/C(=O)Nc2ccccc2C(=O)O)cc1OC [Tranilast, 2-[[3-(3,4-dimethoxyphenyl)-1-oxo-2-propenyl]amino]benzoic acid]","Change from Baseline in Uric Acid, Max",[1],2.00 mg/dL
same,"Change from Baseline in Uric Acid, Mean (SD)",[1],−0.64 (1.351) mg/dL
same,"Change from Baseline in Uric Acid, Median",[1],-0.86 mg/dL
same,"Change from Baseline in Uric Acid, Min",[1],-3.30 mg/dL
same,"Change from Baseline in Uric Acid, Max",[2],2.03 mg/dL
same,"Change from Baseline in Uric Acid, Mean (SD)",[2],−1.33 (1.220) mg/dL
same,"Change from Baseline in Uric Acid, Median",[2],-1.30 mg/dL
same,"Change from Baseline in Uric Acid, Min",[2],-4.54 mg/dL
same,"Change from Baseline in Uric Acid, Max",[3],2.70 mg/dL
same,"Change from Baseline in Uric Acid, Mean (SD)",[3],−2.31 (1.839) mg/dL
same,"Change from Baseline in Uric Acid, Median",[3],-2.51 mg/dL
same,"Change from Baseline in Uric Acid, Min",[3],-6.05 mg/dL
same,"Change from Baseline in Uric Acid, Max",[4],1.80 mg/dL
same,"Change from Baseline in Uric Acid, Mean (SD)",[4],−2.61 (2.149) mg/dL
same,"Change from Baseline in Uric Acid, Median",[4],-3.00 mg/dL
same,"Change from Baseline in Uric Acid, Min",[4],-7.05 mg/dL
same,"Change from Baseline in Uric Acid, Max",[5],3.50 mg/dL
same,"Change from Baseline in Uric Acid, Mean (SD)",[5],−2.43 (2.143) mg/dL
same,"Change from Baseline in Uric Acid, Median",[5],-2.70 mg/dL
same,"Change from Baseline in Uric Acid, Min",[5],-6.61 mg/dL
same,"Change from Baseline in Uric Acid, Max",[6],2.60 mg/dL
same,"Change from Baseline in Uric Acid, Mean (SD)",[6],−2.30 (1.953) mg/dL
same,"Change from Baseline in Uric Acid, Median",[6],-2.40 mg/dL
same,"Change from Baseline in Uric Acid, Min",[6],-7.40 mg/dL
same,"Change from Baseline in Uric Acid, Max",[7],2.40 mg/dL
same,"Change from Baseline in Uric Acid, Mean (SD)",[7],−0.82 (1.416) mg/dL
same,"Change from Baseline in Uric Acid, Median",[7],-0.70 mg/dL
same,"Change from Baseline in Uric Acid, Min",[7],-5.21 mg/dL
same,"Change from Baseline in Uric Acid, Max",[8],1.55 mg/dL
same,"Change from Baseline in Uric Acid, Mean (SD)",[8],−0.63 (1.371) mg/dL
same,"Change from Baseline in Uric Acid, Median",[8],-0.70 mg/dL
same,"Change from Baseline in Uric Acid, Min",[8],-4.54 mg/dL
same,"Change from Baseline in Uric Acid, Max",[9],2.10 mg/dL
same,"Change from Baseline in Uric Acid, Mean (SD)",[9],−0.79 (1.195) mg/dL
same,"Change from Baseline in Uric Acid, Median",[9],-0.83 mg/dL
same,"Change from Baseline in Uric Acid, Min",[9],-3.53 mg/dL
same,"Change from Baseline in Uric Acid, Max",[10],1.50 mg/dL
same,"Change from Baseline in Uric Acid, Mean (SD)",[10],−0.75 (1.500) mg/dL
same,"Change from Baseline in Uric Acid, Median",[10],-0.52 mg/dL
same,"Change from Baseline in Uric Acid, Min",[10],-4.90 mg/dL
same,"Change from Baseline in Uric Acid, Max",[11],1.20 mg/dL
same,"Change from Baseline in Uric Acid, Mean (SD)",[11],−0.53 (1.249) mg/dL
same,"Change from Baseline in Uric Acid, Median",[11],-0.40 mg/dL
same,"Change from Baseline in Uric Acid, Min",[11],-4.40 mg/dL
same,"Change from Baseline in Uric Acid, Max",[12],0.70 mg/dL
same,"Change from Baseline in Uric Acid, Mean (SD)",[12],−2.00 (1.454) mg/dL
same,"Change from Baseline in Uric Acid, Median",[12],-1.96 mg/dL
same,"Change from Baseline in Uric Acid, Min",[12],-5.21 mg/dL
same,"Change from Baseline in Uric Acid, Max",[13],2.00 mg/dL
same,"Change from Baseline in Uric Acid, Mean (SD)",[13],−3.66 (1.902) mg/dL
same,"Change from Baseline in Uric Acid, Median",[13],-3.95 mg/dL
same,"Change from Baseline in Uric Acid, Min",[13],-8.00 mg/dL
same,"Change from Baseline in Uric Acid, Max",[14],1.00 mg/dL
same,"Change from Baseline in Uric Acid, Mean (SD)",[14],−3.43 (2.176) mg/dL
same,"Change from Baseline in Uric Acid, Median",[14],-3.50 mg/dL
same,"Change from Baseline in Uric Acid, Min",[14],-8.40 mg/dL
same,"Change from Baseline in Uric Acid, Max",[15],-0.70 mg/dL
same,"Change from Baseline in Uric Acid, Mean (SD)",[15],−4.19 (1.978) mg/dL
same,"Change from Baseline in Uric Acid, Median",[15],-4.27 mg/dL
same,"Change from Baseline in Uric Acid, Min",[15],-7.90 mg/dL
same,"Change from Baseline in Uric Acid, Max",[16],1.00 mg/dL
same,"Change from Baseline in Uric Acid, Mean (SD)",[16],−3.52 (2.127) mg/dL
same,"Change from Baseline in Uric Acid, Median",[16],-4.03 mg/dL
same,"Change from Baseline in Uric Acid, Min",[16],-7.65 mg/dL
same,"Change from Baseline in Uric Acid, Max",[17],2.50 mg/dL
same,"Change from Baseline in Uric Acid, Mean (SD)",[17],−0.29 (1.188) mg/dL
same,"Change from Baseline in Uric Acid, Median",[17],-0.30 mg/dL
same,"Change from Baseline in Uric Acid, Min",[17],-3.20 mg/dL
same,"Change from Baseline in Uric Acid, Max",[18],3.60 mg/dL
same,"Change from Baseline in Uric Acid, Mean (SD)",[18],−0.49 (2.142) mg/dL
same,"Change from Baseline in Uric Acid, Median",[18],-0.10 mg/dL
same,"Change from Baseline in Uric Acid, Min",[18],-9.70 mg/dL
same,"Change from Baseline in Uric Acid, Max",[19],4.60 mg/dL
same,"Change from Baseline in Uric Acid, Mean (SD)",[19],−0.46 (1.494) mg/dL
same,"Change from Baseline in Uric Acid, Median",[19],-0.38 mg/dL
same,"Change from Baseline in Uric Acid, Min",[19],-4.40 mg/dL
same,"Change from Baseline in Uric Acid, Max",[20],2.70 mg/dL
same,"Change from Baseline in Uric Acid, Mean (SD)",[20],−0.56 (1.298) mg/dL
same,"Change from Baseline in Uric Acid, Median",[20],-0.34 mg/dL
same,"Change from Baseline in Uric Acid, Min",[20],-3.50 mg/dL
